{"source": "patent US11046696B2", "about": "“Fused pyrimidine compound or salt thereof” (TAIHO PHARMACEUTICAL CO., LTD., priority 2016, dated 2021)"}
{"experiment": "Evaluation of stability in liver microsome", "conditions": "mouse liver microsome, 1 μM, 37° C. for 30 minutes", "units": {"Remaining (%)": "%"}, "method": "Solutions of the test compounds in DMSO/acetonitrile (the final concentration of each test compound was 1 μM, the final concentration of DMSO was 0.01%, and the final concentration of acetonitrile was 1%) were individually added to a liver microsome mixture solution (mouse liver microsome with a final concentration of 0.25 mg/mL, a potassium phosphate buffer with a final concentration of 100 mM, and magnesium chloride with a final concentration of 3 mM), and each mixture was pre-incubated at 37° C. for 5 minutes. […] After incubation at 37° C. for 30 minutes, a double amount of ethanol was added thereto to terminate the reaction, thereby obtaining post-reaction samples. A double amount of ethanol was added to each of the remaining mixture solutions, and a NADPH-generating system was further added thereto, thereby obtaining pre-reaction samples. The pre-reaction samples and post-reaction samples were centrifuged at 2000×g, and their supernatant was filtered through a glass filter. Each filtrate was then introduced into LC-MS/MS, and MS/MS peaks of the test compounds were detected. From the ratio of the post-reaction MS/MS peak to the pre-reaction MS/MS peak of the test compounds, the percentage of the remaining test compounds (remaining %) was calculated."}
{"compound": "COCc1ccc(NC(=O)c2c(-c3ccc(CO)nc3)n(C3(C)CC3)c3ncnc(N)c23)cc1", "note": "[Example 179, 4-amino-6-(6-(hydroxymethyl)pyridin-3-yl)-N-(4-(methoxymethyl)phenyl)-7-(1-methylcyclopropyl)-7H-pyrrolo[2,3-d]pyrimidine-5-carboxamide]", "Remaining (%)": 85}
{"compound": "COCc1ccc(NC(=O)c2c(OCC(C)(C)OC)n(C3(C)CC3)c3ncnc(N)c23)cc1", "note": "[Example 137, 4-amino-6-(2-methoxy-2-methylpropoxy)-N-(4-(methoxymethyl)phenyl)-7-(1-methylcyclopropyl)-7H-pyrrolo[2,3-d]pyrimidine-5-carboxamide]", "Remaining (%)": 53}
{"compound": "COCc1ccc(NC(=O)c2c(C#Cc3ccccn3)n(C3(C)CC3)c3ncnc(N)c23)cc1", "note": "[Example 172, 4-amino-N-[4-(methoxymethyl)phenyl]-7-(1-methylcyclopropyl)-6-(pyridin-2-ylethynyl)-7H-pyrrolo[2,3-d]pyrimidine-5-carboxamide]", "Remaining (%)": 61}
{"compound": "CCc1c(C(=O)Nc2ccc(COC)cc2)c2c(N)ncnc2n1C1(C)CC1", "note": "[Example 207, 4-amino-6-ethyl-N-(4-(methoxymethyl)phenyl)-7-(1-methylcyclopropyl)-7H-pyrrolo[2,3-d]pyrimidine-5-carboxamide]", "Remaining (%)": 72}
{"compound": "COCc1ccc(NC(=O)c2c(-c3ccc(O)cc3)n(C3(C)CC3)c3ncnc(N)c23)cc1", "note": "[Example 148, 4-amino-6-(4-hydroxyphenyl)-N-(4-(methoxymethyl)phenyl)-7-(1-methylcyclopropyl)-7H-pyrrolo[2,3-d]pyrimidine-5-carboxamide]", "Remaining (%)": 61}
{"compound": "C=Cc1c(C(=O)Nc2ccc(COC)cc2)c2c(N)ncnc2n1C1(C)CC1", "note": "[Example 65, 4-amino-N-(4-(methoxymethyl)phenyl)-7-(1-methylcyclopropyl)-6-vinyl-7H-pyrrolo[2,3-d]pyrimidine-5-carboxamide]", "Remaining (%)": 79}
{"compound": "COCc1ccc(NC(=O)c2c(C#CCN3CCCCC3)n(C3(C)CC3)c3ncnc(N)c23)cc1", "note": "[Example 105, 4-amino-N-[4-(methoxymethyl)phenyl]-7-(1-methylcyclopropyl)-6-(3-(piperidin-1-yl)prop-1-yn-1-yl)-7H-pyrrolo[2,3-d]pyrimidine-5-carboxamide]", "Remaining (%)": 52}
{"compound": "COCc1ccc(NC(=O)c2c(-c3ccccc3)n(C3(C)CC3)c3ncnc(N)c23)cc1", "note": "[Example 154, 4-amino-N-(4-(methoxymethyl)phenyl)-7-(1-methylcyclopropyl)-6-phenyl-7H-pyrrolo[2,3-d]pyrimidine-5-carboxamide]", "Remaining (%)": 50}
{"compound": "COCc1ccc(NC(=O)c2c(C#CCC3NC(=O)NC3=O)n(C3(C)CC3)c3ncnc(N)c23)cc1", "note": "(centres unmarked) [Example 156, 4-amino-6-(3-(2,5-dioxoimidazolidin-4-yl)prop-1-yn-1-yl)-N-(4-(methoxymethyl)phenyl)-7-(1-methylcyclopropyl)-7H-pyrrolo[2,3-d]pyrimidine-5-carboxamide]", "Remaining (%)": 67}
{"compound": "COCc1ccc(NC(=O)c2c(C#Cc3cncc(C#N)c3)n(C3(C)CC3)c3ncnc(N)c23)cc1", "note": "[Example 195, 4-amino-6-((5-cyanopyridin-3-yl)ethynyl)-N-(4-(methoxymethyl)phenyl)-7-(1-methylcyclopropyl)-7H-pyrrolo[2,3-d]pyrimidine-5-carboxamide]", "Remaining (%)": 70}
{"compound": "COCc1ccc(NC(=O)c2cn(C(C)(C)CF)c3ncnc(N)c23)cc1F", "note": "[Example 41, 4-amino-7-(1-fluoro-2-methylpropan-2-yl)-N-(3-fluoro-4-(methoxymethyl)phenyl)-7H-pyrrolo[2,3-d]pyrimidine-5-carboxamide]", "Remaining (%)": 56}
{"compound": "COCc1ccc(NC(=O)c2c(C(C)=O)n(C3(C)CC3)c3ncnc(N)c23)cc1", "note": "[Example 64, 6-acetyl-4-amino-N-(4-(methoxymethyl)phenyl)-7-(1-methylcyclopropyl)-7H-pyrrolo[2,3-d]pyrimidine-5-carboxamide]", "Remaining (%)": 89}
{"compound": "COCc1ccc(NC(=O)c2c(C#CCN3CC[S+]([O-])CC3)n(C3(C)CC3)c3ncnc(N)c23)cc1", "note": "[Example 178, 4-amino-N-(4-(methoxymethyl)phenyl)-7-(1-methylcyclopropyl)-6-(3-(1-oxidethiomorpholino)prop-1-yn-1-yl)-7H-pyrrolo[2,3-d]pyrimidine-5-carboxamide]", "Remaining (%)": 88}
{"compound": "COCc1ccc(NC(=O)c2c(C#Cc3cncc(F)c3)n(C3(C)CC3)c3ncnc(N)c23)cc1", "note": "[Example 175, 4-amino-6-((5-fluoropyridin-3-yl)ethynyl)-N-(4-(methoxymethyl)phenyl)-7-(1-methylcyclopropyl)-7H-pyrrolo[2,3-d]pyrimidine-5-carboxamide]", "Remaining (%)": 66}
{"compound": "CCn1cc(C#Cc2c(C(=O)Nc3ccc(COC)cc3)c3c(N)ncnc3n2C2(C)CC2)cn1", "note": "[Example 118, 4-amino-6-((1-ethyl-1H-pyrazol-4-yl)ethynyl)-N-(4-(methoxymethyl)phenyl)-7-(1-methylcyclopropyl)-7H-pyrrolo[2,3-d]pyrimidine-5-carboxamide]", "Remaining (%)": 73}
{"compound": "COCc1ccc(NC(=O)c2cn(C(C)(C)C)c3ncnc(N)c23)c(OC)c1", "note": "[Example 33, 4-amino-7-(tert-butyl)-N-(2-methoxy-4-(methoxymethyl)phenyl)-7H-pyrrolo[2,3-d]pyrimidine-5-carboxamide]", "Remaining (%)": 57}
{"compound": "COCc1ccc(NC(=O)c2c(C#Cc3c[nH]c4ccccc34)n(C3(C)CC3)c3ncnc(N)c23)cc1", "note": "[Example 121, 6-((1H-indol-3-yl)ethynyl)-4-amino-N-(4-(methoxymethyl)phenyl)-7-(1-methylcyclopropyl)-7H-pyrrolo[2,3-d]pyrimidine-5-carboxamide]", "Remaining (%)": 74}
{"compound": "CCOc1c(C(=O)Nc2ccc(-c3ccco3)cc2)c2c(N)ncnc2n1C1(C)CC1", "note": "[Example 116, 4-amino-6-ethoxy-N-(4-(furan-2-yl)phenyl)-7-(1-methylcyclopropyl)-7H-pyrrolo[2,3-d]pyrimidine-5-carboxamide]", "Remaining (%)": 55}
{"compound": "COCc1ccc(NC(=O)c2c(Br)n(C3(C)CC3)c3ncnc(N)c23)cc1", "note": "[Example 55, 4-amino-6-bromo-N-[4-(methoxymethyl)phenyl]-7-(1-methylcyclopropyl)-7H-pyrrolo[2,3-d]pyrimidine-5-carboxamide]", "Remaining (%)": 56}
{"compound": "Nc1ncnc2c1c(C(=O)Nc1ccc(Oc3ccccc3)cc1)cn2C1CCCC1", "note": "[Compound 2 of Comparative Examples, 4-amino-7-cyclopentyl-N-(4-phenoxyphenyl)-7H-pyrrolo[2,3-d]pyrimidine-5-carboxamide, reference compound]", "Remaining (%)": 0}
{"compound": "COCc1ccc(NC(=O)c2c(C#Cc3cnc[nH]3)n(C3(C)CC3)c3ncnc(N)c23)cc1", "note": "[Example 191, 6-((1H-imidazol-5-yl)ethynyl)-4-amino-N-(4-(methoxymethyl)phenyl)-7-(1-methylcyclopropyl)-7H-pyrrolo[2,3-d]pyrimidine-5-carboxamide]", "Remaining (%)": 53}
{"compound": "COCc1ccc(NC(=O)c2c(C#Cc3cncnc3)n(C3(C)CC3)c3ncnc(N)c23)cc1", "note": "[Example 196, 4-amino-N-(4-(methoxymethyl)phenyl)-7-(1-methylcyclopropyl)-6-(pyrimidin-5-ylethynyl)-7H-pyrrolo[2,3-d]pyrimidine-5-carboxamide]", "Remaining (%)": 53}
{"compound": "COCc1ccc(NC(=O)c2cn(C3(C4CC4)CC3)c3ncnc(N)c23)cc1", "note": "[Example 49, 7-{[1,1-bi(cyclopropane)]-1-yl}-4-amino-N-(4-(methoxymethyl)phenyl)-7H-pyrrolo[2,3-d]pyrimidine-5-carboxamide]", "Remaining (%)": 67}
{"compound": "COCc1ccc(NC(=O)c2c(OC)n(C3(C)CC3)c3ncnc(N)c23)cc1", "note": "[Example 57, 4-amino-6-methoxy-N-[4-(methoxymethyl)phenyl]-7-(1-methylcyclopropyl)-7H-pyrrolo[2,3-d]pyrimidine-5-carboxamide]", "Remaining (%)": 86}
{"compound": "COCc1ccc(NC(=O)c2c(C#Cc3cnn(C)c3C)n(C3(C)CC3)c3ncnc(N)c23)cc1", "note": "[Example 182, 4-amino-6-((1,5-dimethyl-1H-pyrazol-4-yl)ethynyl)-N-(4-(methoxymethyl)phenyl)-7-(1-methylcyclopropyl)-7H-pyrrolo[2,3-d]pyrimidine-5-carboxamide]", "Remaining (%)": 61}
{"compound": "COCc1ccc(NC(=O)c2c(C#Cc3ccsc3)n(C3(C)CC3)c3ncnc(N)c23)cc1", "note": "[Example 176, 4-amino-N-(4-(methoxymethyl)phenyl)-7-(1-methylcyclopropyl)-6-(thiophen-3-ylethynyl)-7H-pyrrolo[2,3-d]pyrimidine-5-carboxamide]", "Remaining (%)": 70}
{"compound": "COCc1ccc(NC(=O)c2cn(C3(C)CC3)c3ncnc(N)c23)cc1", "note": "[Example 36, 4-amino-N-(4-(methoxymethyl)phenyl)-7-(1-methylcyclopropyl)-7H-pyrrolo[2,3-d]pyrimidine-5-carboxamide]", "Remaining (%)": 73}
{"compound": "COCc1ccc(NC(=O)c2c(-c3cncnc3)n(C3(C)CC3)c3ncnc(N)c23)cc1", "note": "[Example 194, 4-amino-N-(4-(methoxymethyl)phenyl)-7-(1-methylcyclopropyl)-6-(pyrimidin-5-yl)-7H-pyrrolo[2,3-d]pyrimidine-5-carboxamide]", "Remaining (%)": 67}
{"compound": "COCc1ccc(NC(=O)c2c(C#Cc3ccccc3)n(C3(C)CC3)c3ncnc(N)c23)cc1", "note": "[Example 162, 4-amino-N-(4-(methoxymethyl)phenyl)-7-(1-methylcyclopropyl)-6-(phenylethynyl)-7H-pyrrolo[2,3-d]pyrimidine-5-carboxamide]", "Remaining (%)": 76}
{"compound": "COCc1ccc(NC(=O)c2c(OCC(C)C)n(C3(C)CC3)c3ncnc(N)c23)cc1", "note": "[Example 99, 4-amino-6-isobutoxy-N-(4-(methoxymethyl)phenyl)-7-(1-methylcyclopropyl)-7H-pyrrolo[2,3-d]pyrimidine-5-carboxamide]", "Remaining (%)": 51}
{"compound": "[2H]C([2H])([2H])OCc1ccc(NC(=O)c2cn(C(C)(C)C)c3ncnc(N)c23)cc1", "note": "[Example 35, 4-amino-7-(tert-butyl)-N-(4-((methoxy-d3)-methyl)phenyl)-7H-pyrrolo[2,3-d]pyrimidine-5-carboxamide]", "Remaining (%)": 58}
{"compound": "COCc1ccc(NC(=O)c2c(SC)n(C3(C)CC3)c3ncnc(N)c23)cc1", "note": "[Example 133, 4-amino-N-(4-methoxymethyl)phenyl-7-(1-methylcyclopropyl)-6-(methylthio)-7H-pyrrolo[2,3-d]pyrimidine-5-carboxamide]", "Remaining (%)": 70}
